The EC50 is the concentration needed to bring the measured effect to its halfway point.

Chain of Neuronal acetylcholine receptor subunit alpha-7 (P36544 whole entry): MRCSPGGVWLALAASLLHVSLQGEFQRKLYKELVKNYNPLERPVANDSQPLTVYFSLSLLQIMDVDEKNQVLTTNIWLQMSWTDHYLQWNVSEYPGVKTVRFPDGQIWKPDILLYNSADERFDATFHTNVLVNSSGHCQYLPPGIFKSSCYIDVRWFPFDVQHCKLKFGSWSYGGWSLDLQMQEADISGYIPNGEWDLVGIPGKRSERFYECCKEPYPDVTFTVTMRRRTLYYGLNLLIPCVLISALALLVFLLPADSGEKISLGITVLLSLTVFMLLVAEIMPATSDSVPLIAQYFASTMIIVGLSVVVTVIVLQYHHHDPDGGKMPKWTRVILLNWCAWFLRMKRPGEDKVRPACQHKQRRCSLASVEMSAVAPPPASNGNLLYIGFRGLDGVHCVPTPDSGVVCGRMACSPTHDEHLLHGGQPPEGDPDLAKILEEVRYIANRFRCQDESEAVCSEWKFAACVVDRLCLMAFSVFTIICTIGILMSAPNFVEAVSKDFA

The test addresses Neuronal acetylcholine receptor subunit alpha-7 (Homo sapiens, UniProt P36544). In words: Positive allosteric modulation of human alpha7 nAChR expressed in HEK cells assessed as potentiation of acetylcholine induced peak current amplitude preincubated for 58 secs followed by acetylcholine stimulation for 1 secs by automated patch-clamp electrophysiology. Type of test: cell-based. On the technique in general: Patch clamp records ionic current or voltage across a cell membrane.
For `CCOc1ccc([C@H](COC)NC(=O)C2CC23CCc2ccc(F)cc23)cc1` (some centres undefined), the EC50 was determined as 700 nM.
With `O=C(N[C@@H](CO)C1CCCCC1)C1CC12COc1ccccc12` (some centres undefined), the EC50 is 630 nM.
As to `CCOc1ccc([C@H](CF)NC(=O)C2CC23COc2ccc(F)cc23)cn1` (some centres undefined), the EC50 turned out to be 790 nM.
The result for `O=C(N[C@@H](CO)C1CCCCC1)C1CC12COc1ccc(F)cc12` (some centres undefined) reads 770 nM.
The value for `CCOc1ccc([C@H](COC)NC(=O)C2CC23CCCc2ccccc23)cc1` (some centres undefined) was 740 nM; that for `CCOc1ccc([C@H](COC)NC(=O)C2CC23CCc2cc(F)ccc23)cc1` (some centres undefined) was 590 nM; that for `CCOc1ccc([C@@H](NC(=O)C2CC23COc2ccc(F)cc23)C(F)F)cn1` (some centres undefined) was 3000 nM.
In the case of `O=C(NC1(c2ccc(F)cc2)COC1)C1CC12CCc1ccc(F)cc12` (centres undefined), the EC50 is 820 nM.
As to `O=C(NC1(c2ccc(F)cc2)COC1)C1CC12CCc1ccccc12` (centres undefined), the EC50 is 3200 nM.

(Values after ChEMBL document CHEMBL5357009, “Positive Allosteric Modulators of alpha7 Nicotinic Acetylcholine Receptor for the Treatment of Several Central Nervous System Diseases” (ACS Med Chem Lett, 2024).)
